{"source": "patent US6737085B2", "about": "“Apocynum venetum extract for use as antidepressant” (Tokiwa Phytochemical Co., Ltd., priority 2000, dated 2004)", "key": {"[1]": {"system": "Male CD rats", "assay": "forced swimming test, acute administration", "assay_type": "in vivo", "experimental": "A common method for evaluating antidepressant effect called as the forced swimming test (Porsolt et al., Nature. 266, 730-732, (1977)) was used as follows. Male CD rats (230-250 g) were used in the tests. Forty animals were divided into groups of 8 animals treated with 30 mg/kg imipramine, 125 mg/kg, 250 mg/kg and 500 mg/kg Apocynum extract and purified water. Test solutions were orally administered 24 h, 5 h and 1 h before testing. Rats were forced to swim for 15 min in a Plexiglas cylinder (40×18 cm i.d.) containing water at 25° C. at a level of 17 cm so that they preliminarily learned that they could not escape from the cylinder. […] All the tests were performed between 1-3 p.m. The images in the tapes were evaluated by a person who was not aware of the treatment of each group.\n(§1) Test solutions were prepared by dissolving or suspending Apocynum extract prepared in Example 2 in purified water or dissolving imipramine-HCl (imipramine is a known tricyclic antidepressant) in purified water, and administered at a dose of 10 ml/kg body weight. The results from 8 experimental animals in each group were expressed in mean ”SEM. Statistic significance as compared with control group was determined by ANOVA and multiple comparison tests were made by Fisher-PLSD (p<0.05:*)."}, "[2]": {"system": "Male CD rats", "assay": "forced swimming test, repeated administration", "assay_type": "in vivo", "experimental": "A common method for evaluating antidepressant effect called as the forced swimming test (Porsolt et al., Nature. 266, 730-732, (1977)) was used in the same manner as in Example 3. Male CD rats (230-250 g) were used in the tests. Forty animals were divided into groups of 8 animals treated with 20 mg/kg imipramine, 30 mg/kg, 60 mg/kg and 125 mg/kg Apocynum extract and purified water. Test solutions were orally administered between 3-4 p.m. daily. Rats were forced to swim for 15 min in a Plexiglas cylinder (40×18 cm i.d.) containing water at 25° C. at a level of 17 cm so that they preliminarily learned that they could not escape from the cylinder. […] All the tests were performed between 1-3 p.m. The images in the tapes were evaluated by a person who was not aware of the treatment of each group.\nas §1, with “mean±SEM.” for “mean ”SEM.”"}}, "note": "Where a name gives a salt, the structure may show the parent alone.", "data": [{"compound": "CN(C)CCCN1c2ccccc2CCc2ccccc21", "note": "[Imipramine, imipramine-HCl]", "values": [{"measurement": "Inactive period (seconds)", "setting": "[1]; 30 mg/kg orally 24 h, 5 h and 1 h before testing, 5 min swim, mean±SEM, n=8, control 209 ± 20, * p<0.05", "result": "137 ± 18* seconds"}, {"measurement": "inactive period as compared with control group", "setting": "[1]; 30 mg/kg, acute oral administration, ANOVA, Fisher-PLSD p<0.05", "result": "significantly shortened"}, {"measurement": "Inactive period (seconds)", "setting": "[2]; 20 mg/kg orally daily, repeated, 5 min swim 1 h after final administration, mean±SEM, n=8, control 161.54 ± 16.5, * p<0.05", "result": "97.91 ± 9.6* seconds"}, {"measurement": "inactive period as compared with control group", "setting": "[2]; 20 mg/kg, repeated oral administration, ANOVA, Fisher-PLSD p<0.05", "result": "significantly shortened"}]}]}
